The nature of series [1]: Plasma protein binding rate, mouse plasma (equilibrium dialysis). The class given is in vitro ADME. To be noted: CD-1, mouse, pH 7.4, equilibrium dialysis 6 h, 37° C. The protocol: The protein binding rates of the compound of the present invention in plasma of 5 species (humans, monkeys, dogs, rats, and mice) were determined using the following method.
• 1. Human plasma (BioIVT), monkey plasma (ADME-plasma-pooled monkey-05212020), beagle dog plasma (BioIVT), SD rat plasma (BioIVT), and CD-1 mouse plasma (BioIVT) • 2. Na2HPO4 (Sigma S5136-500G) • 3. NaH2PO4 (Sigma S3139-500G) • 4. NaCl (Sigma S5886-IKG) • 5. 96-well equilibrium dialysis plate (HTDialysis LLC, Gales Ferry, CT, HTD96B) and equilibrium dialysis membrane (MWCO 12-14K, 1101) • 6. Positive control compound warfarin • 7. ABI QTrap 5500 liquid chromatography-mass spectrometry system
• 1. […] Preparation of a dialysis membrane: the dialysis membrane was soaked in ultrapure water for 60 min to separate the membrane into two pieces, then soaked with 20% ethanol for 20 min, and finally soaked with dialysis buffer for 20 min. • 3. Preparation of plasma: the frozen plasma was quickly thawed at room temperature and then centrifuged at 3,220 g at 4° C. for 10 min to remove clots, and the supernatant was collected to a new centrifuge tube. The pH of the plasma was measured and recorded. The plasma with pH 7-8 was used. • 4. […]
The peak areas of the compound on the buffer side and the plasma side were measured. The plasma protein binding rate of the compound was calculated by the following formula: […]
For orientation: In equilibrium dialysis free small molecules cross a membrane that holds back macromolecules.

A further series deals with hERG potassium channel (Homo sapiens (Human), UniProt Q12809). The experiment in a line: hERG inhibitory activity, manual patch clamp. The series is classed as cell-based. The note with it: HEK293 cells stably expressing hERG. The protocol:
The inhibition of hERG activity by the compound of the present invention was determined using the following method.
HEK293 cells (Cat. No: K1236) stably expressing hERG ion channel were purchased from Invitrogen. The cells were cultured in a culture medium containing 85% DMEM, 10% dialyzed fetal bovine serum, 0.1 mM non-essential amino acid solution, 100 U/mL penicillin-streptomycin solution, 25 mM HEPES, 5 μg/mL blasticidin, and 400 μg/mL geneticin. When the cell density increased to 40-80% of the bottom area of the culture dish, the cells were digested with trypsin and subcultured thrice every week. Before the experiment, the cells were cultured at a density of 5×10^5 in 6-cm culture dishes, induced for 48 h with 1 μg/mL doxycycline, and then digested and inoculated on a slide for the subsequent manual patch-clamp experiment. […]
• 1) The slides carrying HEK293 cells in the culture dish were placed in the perfusion chamber of the micromanipulation stage. • 2) Appropriate cells were placed in the center of the field of view under an Olympus IX51, IX71, or IX73 inverted microscope. […] The peak value of the tail current was the magnitude of the hERG current. • 9) The hERG current used to detect the test compound was recorded continuously for 120 seconds prior to dosing to assess the stability of hERG current production by the test cells. […]
For orientation: The hERG channel carries a current that helps repolarise heart muscle cells.

Structures are written as SMILES.

This note sets out measurements from patent US20240307415A1, “STEROID COMPOUND, AND PHARMACEUTICAL COMPOSITION THEREOF AND USE THEREOF” (JIANGSU SIMCERE PHARMACEUTICAL CO., LTD., priority 2021, published 2024).

By fraction unbound is commonly meant the share of the substance not bound to proteins or other matrix. Read a low fraction unbound as extensive binding. As a reminder, the IC50 is the concentration that gives 50% inhibition. A high value points to weaker potency.

Chain of hERG potassium channel (Q12809 whole entry): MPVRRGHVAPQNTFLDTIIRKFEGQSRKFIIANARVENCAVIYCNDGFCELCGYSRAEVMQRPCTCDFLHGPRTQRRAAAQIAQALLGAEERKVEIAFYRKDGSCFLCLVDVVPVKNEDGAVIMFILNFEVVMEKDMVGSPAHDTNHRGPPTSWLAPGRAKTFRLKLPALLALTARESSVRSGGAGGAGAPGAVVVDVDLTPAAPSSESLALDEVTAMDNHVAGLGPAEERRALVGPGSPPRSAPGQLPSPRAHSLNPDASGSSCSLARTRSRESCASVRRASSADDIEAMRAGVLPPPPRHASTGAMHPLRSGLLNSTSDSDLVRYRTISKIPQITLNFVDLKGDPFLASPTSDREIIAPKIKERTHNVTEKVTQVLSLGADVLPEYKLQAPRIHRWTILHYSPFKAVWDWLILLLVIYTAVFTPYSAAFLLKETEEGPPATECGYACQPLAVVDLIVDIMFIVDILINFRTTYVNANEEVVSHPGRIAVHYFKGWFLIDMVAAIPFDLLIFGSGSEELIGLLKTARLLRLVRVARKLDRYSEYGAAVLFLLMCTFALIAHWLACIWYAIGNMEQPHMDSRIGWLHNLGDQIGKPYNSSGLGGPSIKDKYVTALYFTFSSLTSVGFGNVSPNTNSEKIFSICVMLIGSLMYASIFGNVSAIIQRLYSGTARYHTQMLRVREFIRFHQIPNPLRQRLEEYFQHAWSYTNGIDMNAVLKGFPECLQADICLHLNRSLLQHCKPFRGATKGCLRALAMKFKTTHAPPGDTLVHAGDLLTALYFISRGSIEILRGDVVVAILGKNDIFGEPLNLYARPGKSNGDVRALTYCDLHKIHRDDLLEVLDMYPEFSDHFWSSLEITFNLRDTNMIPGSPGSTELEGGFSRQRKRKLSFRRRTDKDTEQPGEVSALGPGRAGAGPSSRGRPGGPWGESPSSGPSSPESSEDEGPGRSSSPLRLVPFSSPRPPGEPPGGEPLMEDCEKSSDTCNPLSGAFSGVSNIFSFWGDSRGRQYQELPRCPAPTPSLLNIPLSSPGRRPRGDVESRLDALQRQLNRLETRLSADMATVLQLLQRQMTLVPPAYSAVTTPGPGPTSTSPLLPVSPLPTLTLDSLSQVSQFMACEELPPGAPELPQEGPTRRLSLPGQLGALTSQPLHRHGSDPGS

Compound `C[C@]12C=CC(=O)C=C1CC[C@@H]1[C@@H]2[C@@H](O)C[C@@]2(C)[C@H]1C[C@H]1O[C@@H](c3ccc(Cc4cc(N)c5c(c4)CCO5)cc3)O[C@]12C(=O)CO` [Compound 009, (6aR,6bS,7S,8aS,8bS,10R,11aR,12aS,12bS)-10-(4-((7-amino-2,3-dihydrobenzofuran-5-yl)methyl)phenyl)-7-hydroxy-8b-(2-hydroxyacetyl)-6a,8a-dimethyl-6a,6b,7,8,8a,8b,11a,12,12a,12b-decahydro-1H-naphtho[2′,1′:4,5]indeno[1,2-d][1,3]dioxolan-4(2H)-one] gave a fraction unbound at 6 h, 1 μM in series [1] of 0.002. The IC50 at hERG potassium channel is > 30 µM.
